Measured values reported in US20240199546A1, “INHIBITORS OF SOLUTE CARRIER FAMILY 6A MEMBER 19 (SLC6A19) AND METHODS OF USE THEREOF” (Maze Therapeutics, Inc., priority 2022, published 2024).

The compounds below were run against T1, human SLC6A19 and TMEM27 (Homo sapiens, UniProt Q695T7) (assay: Radiolabelled (3H) leucine uptake in CHO cells with doxycycline-inducible expression of human SLC6A19 and TMEM27 (Example B-1)). Conditions: CHO cells with doxycycline-inducible expression of human SLC6A19 and TMEM27, read-out: SLC6A19_Radioligand Uptake Assay IC50.
T1 construct: expressed in transfected cells
T1 sequence (Q695T7 1-634): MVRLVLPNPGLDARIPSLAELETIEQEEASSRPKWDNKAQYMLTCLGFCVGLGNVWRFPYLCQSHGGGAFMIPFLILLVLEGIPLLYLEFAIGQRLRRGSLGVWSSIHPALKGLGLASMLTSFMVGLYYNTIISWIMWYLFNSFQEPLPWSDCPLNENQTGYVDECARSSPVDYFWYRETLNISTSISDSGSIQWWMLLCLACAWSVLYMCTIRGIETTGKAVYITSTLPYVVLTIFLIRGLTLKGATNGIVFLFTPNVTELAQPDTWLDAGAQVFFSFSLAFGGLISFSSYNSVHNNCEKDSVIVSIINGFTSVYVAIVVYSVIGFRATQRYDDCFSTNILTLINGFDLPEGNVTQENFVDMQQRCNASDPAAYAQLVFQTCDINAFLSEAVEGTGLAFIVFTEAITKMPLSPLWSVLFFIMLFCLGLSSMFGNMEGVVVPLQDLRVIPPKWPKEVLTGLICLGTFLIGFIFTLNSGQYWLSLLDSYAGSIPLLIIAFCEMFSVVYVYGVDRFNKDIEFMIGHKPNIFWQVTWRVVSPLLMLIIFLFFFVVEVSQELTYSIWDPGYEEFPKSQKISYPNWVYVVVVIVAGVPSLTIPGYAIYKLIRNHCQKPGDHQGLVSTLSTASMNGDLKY
T1 sequence (Q9HBJ8 15-222 partner): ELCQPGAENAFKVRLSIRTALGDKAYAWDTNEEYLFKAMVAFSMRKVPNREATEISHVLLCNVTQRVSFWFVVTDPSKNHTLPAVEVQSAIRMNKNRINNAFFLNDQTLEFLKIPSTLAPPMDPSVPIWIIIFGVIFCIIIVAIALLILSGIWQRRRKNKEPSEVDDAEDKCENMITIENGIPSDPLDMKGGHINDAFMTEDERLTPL
Type: cell-based
In short: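 CHO cells were induced with doxycycline for 18 h at 37 °C, washed in HBSS, then exposed to compounds for 1 h: 8-point, 3-fold dilutions in duplicate, 0.5% DMSO final. Uptake measured by scintillation counting after 2 h shaking. Activity normalized with positive control as 0% and DMSO as 100%.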

IC50 [nM] | Structure (SMILES)
> 8440 | O=C(NCCO)NCc1cc2cc(Cl)c(OCc3cscn3)cc2[nH]1 [Compound 619, 1-((5-chloro-6-(thiazol-4-ylmethoxy)-1H-indol-2-yl)methyl)-3-(2-hydroxyethyl)urea]
567 | Cc1cc(COc2cc3[nH]c(CNC(=O)C4(C)COC4)cc3cc2Cl)on1 [Compound 273, N-((5-chloro-6-((3-methylisoxazol-5-yl)methoxy)-1H-indol-2-yl)methyl)-3-methyloxetane-3-carboxamide]
342 | O=C(NCc1cc2cc(Cl)c(OCc3cscn3)cc2[nH]1)C1CC12CC2 (centres unmarked) [Compound 553, N-((5-chloro-6-(thiazol-4-ylmethoxy)-1H-indol-2-yl)methyl)spiro[2.2]pentane-1-carboxamide]
119 | Cc1cc(COc2cc3[nH]c(CNC(=O)[C@H]4CCO4)cc3cc2Cl)on1 [Compound 317, (R)-N-((5-chloro-6-((3-methylisoxazol-5-yl)methoxy)-1H-indol-2-yl)methyl)oxetane-2-carboxamide]
991 | O=C(NCc1cc2cc(Cl)c(OCc3cscn3)cc2[nH]1)N1CCC1CO (racemic) [Compound 365, (S)-N-((5-chloro-6-(thiazol-4-ylmethoxy)-1H-indol-2-yl)methyl)-2-(hydroxymethyl)azetidine-1-carboxamide and (R)-N-((5-chloro-6-(thiazol-4-ylmethoxy)-1H-indol-2-yl)methyl)-2-(hydroxymethyl)azetidine-1-carboxamide]
2740 | CC1(C(=O)NCc2cc3cc(CCC#N)c(OCc4ccon4)cc3[nH]2)CC1 [Compound 642, N-((5-(2-cyanoethyl)-6-(isoxazol-3-ylmethoxy)-1H-indol-2-yl)methyl)-1-methylcyclopropane-1-carboxamide]
197 | CO[C@@H](C)C(=O)NCc1cc2cc(Cl)c(OCc3cscn3)cc2[nH]1 [Compound 291, (S)-N-((5-chloro-6-(thiazol-4-ylmethoxy)-1H-indol-2-yl)methyl)-2-methoxypropanamide]
394 | O=C(NCc1cc2cc(OC(F)(F)F)c(OCc3cocn3)cc2[nH]1)N1CCCC1 [Compound 417, N-((6-(oxazol-4-ylmethoxy)-5-(trifluoromethoxy)-1H-indol-2-yl)methyl)pyrrolidine-1-carboxamide]
> 8240 | O=C(NCc1cc2cc(Cl)c(OCc3cscn3)cc2[nH]1)C1CC2(CCC2)C1 [Compound 557, N-((5-chloro-6-(thiazol-4-ylmethoxy)-1H-indol-2-yl)methyl)spiro[3.3]heptane-2-carboxamide]
325 | O=C(NCc1cc2cc(Cl)c(OCc3cscn3)cc2[nH]1)C1CCCC1 [Compound 489, N-((5-chloro-6-(thiazol-4-ylmethoxy)-1H-indol-2-yl)methyl)cyclopentanecarboxamide]
2280 | C[C@H](O)C(=O)NCc1cc2cc(F)c(OCc3cscn3)cc2[nH]1 [Compound 281, (S)-N-((5-fluoro-6-(thiazol-4-ylmethoxy)-1H-indol-2-yl)methyl)-2-hydroxypropanamide]
111 | Cc1cc(COc2cc3[nH]c(CNC(=O)C(C)(F)F)cc3cc2Cl)on1 [Compound 440, N-((5-chloro-6-((3-methylisoxazol-5-yl)methoxy)-1H-indol-2-yl)methyl)-2,2-difluoropropanamide]
902 | CC1(C(=O)NCc2cc3cc(Cl)c(OCc4cc(F)ccn4)cc3[nH]2)CC1 [Compound 35, N-((5-chloro-6-((4-fluoropyridin-2-yl)methoxy)-1H-indol-2-yl)methyl)-1-methylcyclopropane-1-carboxamide]
1190 | Cc1cc(COc2cc3[nH]c(CNC(=O)CC4CCO4)cc3cc2Cl)on1 (centres unmarked) [Compound 245, N-((5-chloro-6-((3-methylisoxazol-5-yl)methoxy)-1H-indol-2-yl)methyl)-2-(oxetan-2-yl)acetamide]
157 | CC(=O)NCc1cc2c(F)cc(OCc3cscn3)cc2[nH]1 [Compound 525, N-((4-fluoro-6-(thiazol-4-ylmethoxy)-1H-indol-2-yl)methyl)acetamide]
422 | O=C(NCc1cc2cc(OC(F)(F)F)c(CCc3cocn3)cc2[nH]1)N1CCCC1 [Compound 468, N-((6-(2-(oxazol-4-yl)ethyl)-5-(trifluoromethoxy)-1H-indol-2-yl)methyl)pyrrolidine-1-carboxamide]

IC50 [nM] | Structure (SMILES)
1580 | CC1(C(=O)NCc2cc3cc(-c4ccno4)c(OCc4cscn4)cc3[nH]2)CC1 [Compound 660, N-((5-(isoxazol-5-yl)-6-(thiazol-4-ylmethoxy)-1H-indol-2-yl)methyl)-1-methylcyclopropane-1-carboxamide]
111 | Cc1coc(COc2cc3[nH]c(CNC(=O)C4(C)CC4)cc3cc2Cl)n1 [Compound 71, N-((5-chloro-6-((4-methyloxazol-2-yl)methoxy)-1H-indol-2-yl)methyl)-1-methylcyclopropane-1-carboxamide]
177 | O=C(NCc1cc2cc(Cl)c(OCc3cscn3)cc2[nH]1)N1CCC(F)C1 (centres unmarked) [Compound 93, N-((5-chloro-6-(thiazol-4-ylmethoxy)-1H-indol-2-yl)methyl)-3-fluoropyrrolidine-1-carboxamide]
163 | O=C(NCc1cc2cc(Cl)c(CCc3cscn3)cc2[nH]1)N1CCCC1 [Compound 418, N-((5-chloro-6-(2-(thiazol-4-yl)ethyl)-1H-indol-2-yl)methyl)pyrrolidine-1-carboxamide]
3540 | Cc1cc(COc2cc3[nH]c(CNC(=O)C(C)C4COC4)cc3cc2Cl)on1 (racemic) [Compound 545, (S)-N-((5-chloro-6-((3-methylisoxazol-5-yl)methoxy)-1H-indol-2-yl)methyl)-2-(oxetan-3-yl)propenamide and (R)-N-((5-chloro-6-((3-methylisoxazol-5-yl)methoxy)-1H-indol-2-yl)methyl)-2-(oxetan-3-yl)propanamide]
133 | CC(F)(F)C(=O)NCc1cc2cc(Cl)c(OCc3cscn3)cc2[nH]1 [Compound 435, N-((5-chloro-6-(thiazol-4-ylmethoxy)-1H-indol-2-yl)methyl)-2,2-difluoropropanamide]
500 | O=C(NCc1cc2cc(Cl)c(OCc3cscn3)cc2[nH]1)[C@@H]1CCCO1 [Compound 293, (S)-N-((5-chloro-6-(thiazol-4-ylmethoxy)-1H-indol-2-yl)methyl)tetrahydrofuran-2-carboxamide]
549 | C[C@H]1CCCN1C(=O)NCc1cc2cc(F)c(OCc3cscn3)cc2[nH]1 [Compound 385, (S)-N-((5-fluoro-6-(thiazol-4-ylmethoxy)-1H-indol-2-yl)methyl)-2-methylpyrrolidine-1-carboxamide]
2070 | CNCC(=O)NCc1cc2cc(Cl)c(OCc3cc(C)no3)cc2[nH]1 [Compound 615, N-((5-chloro-6-((3-methylisoxazol-5-yl)methoxy)-1H-indol-2-yl)methyl)-2-(methylamino)acetamide]
1520 | CC1(C(=O)NCc2cc3cc(Cl)c(CCn4ccnn4)cc3[nH]2)CC1 [Compound 583, N-((6-(2-(1H-1,2,3-triazol-1-yl)ethyl)-5-chloro-1H-indol-2-yl)methyl)-1-methylcyclopropane-1-carboxamide]
217 | CC(=O)NCc1cc2cc(Cl)c(OCc3cocn3)cc2[nH]1 [Compound 206, N-((5-chloro-6-(oxazol-4-ylmethoxy)-1H-indol-2-yl)methyl)acetamide]
9830 | CC1(C(=O)NCc2cc3ccc(OCC45CC(C4)C5)cc3[nH]2)CC1 [Compound 189, N-((6-(bicyclo[1.1.1]pentan-1-ylmethoxy)-1H-indol-2-yl)methyl)-1-methylcyclopropane-1-carboxamide]
363 | CC1(C(=O)NCc2cc3c(F)c(Cl)c(OCc4ccon4)cc3[nH]2)CC1 [Compound 15, N-((5-chloro-4-fluoro-6-(isoxazol-3-ylmethoxy)-1H-indol-2-yl)methyl)-1-methylcyclopropane-1-carboxamide]
176 | CC1(C(=O)NCc2cc3cc(Cl)c(CCn4nccn4)cc3[nH]2)CC1 [Compound 586, N-((6-(2-(2H-1,2,3-triazol-2-yl)ethyl)-5-chloro-1H-indol-2-yl)methyl)-1-methylcyclopropane-1-carboxamide]
383 | O=C(NCc1cc2cc(C(F)(F)F)c(OCc3ccon3)cc2[nH]1)N1CCC1 [Compound 477, N-((6-(isoxazol-3-ylmethoxy)-5-(trifluoromethyl)-1H-indol-2-yl)methyl)azetidine-1-carboxamide]
570 | CC1CC(C(=O)NCc2cc3cc(Cl)c(OCc4cscn4)cc3[nH]2)C1 (centres unmarked) [Compound 561, N-((5-chloro-6-(thiazol-4-ylmethoxy)-1H-indol-2-yl)methyl)-3-methylcyclobutane-1-carboxamide]
